What was measured:
[1] = Particle size distribution and mean particle size (d4,3) by laser diffraction (LS230); format: physicochemical; conditions: for mean particle size (d4,3): non-ground product dispersed in water
Procedure: Measurements were carried out for the following organic compounds: natamycin (DSM Gist, Delft, the Netherlands), nystatin (DSM, Delft, the Netherlands), cocoa (Blooker Cocoa, Amsterdam, the Netherlands) and coffee (Douwe Egberts Coffee, Utrecht, the Netherlands). For natamycin two products each containing differently shaped natamycin particles were included in the example; a natamycin product comprising disc-shaped particles and a natamycin product comprising needle-shaped particles. Before use the coffee was filtered through a 150 μm sieve. Samples of the above organic compounds were dispersed in demineralised water until the light obscuration value, which was measured by Laser Diffraction technology using a Laser Diffraction Particle Size Analyzer LS230 from BeckmanCoulter, Fullerton, Calif., USA, was between 45% and 55%. […] Then, the particle size distribution was analysed with the device for 90 seconds. The device made use of a red laser and a tungsten lamp with wavelengths of 450, 600 and 900 nm to measure the particle size. The device required the refractive index of the liquid phase and the particles and the imaginary refractive index of the particles for determining the particle size distribution from the raw data. These values were manually entered into the measurement device (refractive index liquid: 1.33; refractive index natamycin: 1.6; nystatin: 1.6; cocoa: 2.0; coffee: 2.0; imaginary refractive index natamycin: 0.01; nystatin: 0.01; cocoa: 1.0; coffee: 1.0). From the particle size distribution the mean particle size was determined. The mean particle size provided by the measurement device was a volume based particle size, d4,3. The distribution per particle size range is given as a percentage of the total.
A buffer solution of pH 8 was made by mixing 13.75 ml citric acid solution of 0.1 mol/l with 486.25 ml sodium hydroxide solution of 0.2 mol/l. 25 g of disc-shaped natamycin (d4,3: 14.6 μm; DSM Gist, Delft, the Netherlands) was added to the buffer solution and the powder was dispersed by means of stirring. The grinding chamber (300 ml) of the ball mill (Dynomill KDL Special from Bachofen AG, Basel, Switzerland) was filled up to 75% (v/v) with 0.3 mm zirconium oxide beads stabilized with yttrium (Tosoh Corporation, Tokyo, Japan). The ball mill was operated at 2000 rotations per minute. The natamycin suspension was pumped through the ball mill at a flow rate of 6.1 g/s. The suspension that exited the ball mill was returned to the vessel containing the rest of the suspension. The suspension passed through the chamber of the ball mill multiple times during the grinding experiment. The residence time of the suspension in the grinding chamber and the vessel was 26.7 seconds and 59.4 seconds, respectively. Samples of the suspension exiting the mill were taken after 2, 5, 10, 20, 30, 45, 60, 75 and 90 minutes. The particle size in the suspension samples was measured for each sample by means of laser diffraction using the Laser Diffraction Particle Size Analyzer called LS230 from BeckmanCoulter (Fullerton, Calif., USA).
Disc-shaped natamycin powder was dispersed in water at a concentration of 3000 ppm. The mean particle size of the natamycin suspension was approximately 15 μm. The suspension was homogenized with a homogenizer (Panda 2K, ns100L, GEA NIRO SOAVI, Cell disrupter (R-type)) and a suspension comprising micronised natamycin particles was obtained. In Table 5 the mean particle size (d4,3) of the particles of the obtained suspension is shown as a function of homogenization pressure for a different number of homogenization cycles. […]
The experiment was essentially performed as for natamycin (see Example 2). […]

[2] = Dissolution test, suspension diluted 70 times with water at room temperature; format: physicochemical; conditions: stirred
Procedure: A micronised natamycin suspension prepared essentially as described in Example 7 (with size smaller than 0.2 μm) was diluted 70 times with water at room temperature. The suspension was stirred. Samples were taken out after 5 seconds and then every 10 seconds. The particles were removed from the suspension by filtration with a 0.02 μm syringe-filter (Whatman International Ltd, England). The natamycin concentration of the remaining solution was measured with a spectrophotometer (Uvikon 933, Kontron Instruments). […] The solution reached saturation within 5 seconds (approximately 43 ppm natamycin in solution and solid particles remaining). The same test was repeated with non-grinded disc-shaped natamycin particles with a mean particle size of around 15 μm. In this case the saturation concentration was reached after approximately 2 hours.

[3] = test system: Penicillium discolor PED1, CR1A and Penicillium discolor PED74, L1; assay: Challenge test on coated Gouda cheese; format: cell-based
Procedure: To test the efficacy of micronised natamycin in a cheese application, an experiment was performed wherein the surface of fresh brined Gouda cheeses were challenged with Penicillium discolor strains and treated with formulations comprising natamycin with different particle sizes. The amount of mould spores that was able to germinate on the treated cheese surfaces are an indication of the anti-fungal activity of the natamycin analyzed. The cheeses (10 per natamycin particle type) were considered to be no longer protected by natamycin, when at least 50% of the cheeses analyzed had more than two growing colonies.
Cheeses were coated with a coating containing base polymer Craymul 4386 (Cray Valley, Brummen) and containing natamycin particles. Cheeses were then contaminated at day zero with Penicillium discolor PED1, CR1A and Penicillium discolor PED74, L1 at a concentration of 1.1×10^3/cm^2. The cheeses were visually checked for fungal growth on a daily basis for three weeks. The experiment was carried out with three different natamycin particles: disc-shaped natamycin particles having a mean particle diameter of 15 μm; grinded disc-shaped natamycin particles for which grinding was stopped when the mean particle diameter was 1.23 μm; and micronised natamycin particles having a mean particle diameter of 0.18 μm. […] As a control, 10 cheeses comprising no natamycin in the coating were analyzed. […]

[4] = Sedimentation behaviour of suspensions (volume fraction below the sedimentation front); format: physicochemical
Procedure: In this experiment the stability of micronised and non-micronised natamycin suspensions was analyzed by observing the sedimentation behavior of the suspensions. A micronised natamycin suspension was prepared essentially as described in Example 2 with the proviso that the natamycin was suspended in demineralized water and the pH was not set. Next, a suspension with a final natamycin concentration of 1% (w/w) was prepared in an aqueous solution containing 0.01 M NaCl. The pH of samples of the suspension was set with 0.01 M NaOH and 0.01 M HCl. The samples of the suspension were stored and the pH was adjusted after 10 and 24 hours, if necessary. After 24 hours the pH of the samples of the suspension remained constant. Ten ml of each separate sample was placed in a plastic pipette (Ten ml sterile and disposable plastic pipette; inner diameter 7 mm; Bibby Sterilin Ltd. Stone, Staffordshire, United Kingdom) which was closed at both ends and stored vertically at 4° C. The sedimentation behavior of the samples was followed in time by measuring the volume above and below the sedimentation front within each pipette. In Table 7 the results are shown. The percentages indicate the volume fraction below the sedimentation front. […] This implies that the particles form sediment. The rate at which this occurs varies with pH. […]

Row | mean particle size (d4,3) ([1]; listed as Disc-shaped natamycin powder) | mean particle size (d4,3) ([1]; listed as disc-shaped natamycin product) [μm] | Particle size distribution ([1]; particle size 0-0.2 μm) [% w/w] | Particle size distribution ([1]; particle size 0.2-0.8 μm) [% w/w] | Particle size distribution ([1]; particle size 0.8-2.0 μm) [% w/w] | Particle size distribution ([1]; particle size 2.0-5.0 μm) [% w/w] | Particle size distribution ([1]; particle size 5.0-10.0 μm) [% w/w] | Particle size distribution ([1]; particle size 10.0-50.0 μm) [% w/w] | Particle size distribution ([1]; particle size 50.0-200.0 μm) [% w/w] | time to reach saturation concentration [2] | sedimentation behaviour ([4]; all pH values (pH 3 to 10), within 24 hours) | mean particle size (d4,3) ([1]; listed as needle-shaped natamycin product) [μm] | SMILES | Protection of cheese against fungal growth ([3]; 150 ppm natamycin in the coating) [days] | Protection of cheese against fungal growth ([3]; 250 ppm natamycin in the coating) [days] | mean particle size (d4,3) [1] [μm] | volume percentage below the sedimentation front ([4]; pH 4 to 6, after one day)
1 | approximately 15 μm | 14.6 | 0.0 | 0.0 | 0.8 | 18.4 | 32.6 | 47.8 | 0.4 | approximately 2 hours | completely sediment |  | C[C@@H]1C/C=C/C=C/C=C/C=C/[C@H](O[C@@H]2O[C@H](C)[C@@H](O)[C@H](N)[C@@H]2O)C[C@@H]2O[C@](O)(C[C@@H](O)C[C@H]3O[C@@H]3/C=C/C(=O)O1)C[C@H](O)[C@H]2C(=O)O [Natamycin disc, natamycin] | 16 | 18 |  | 
2 |  |  | 10.2 | 7.2 | 10.5 | 24.9 | 31.7 | 15.6 | 0.0 |  |  | 6.4 | C[C@@H]1C/C=C/C=C/C=C/C=C/[C@H](O[C@@H]2O[C@H](C)[C@@H](O)[C@H](N)[C@@H]2O)C[C@@H]2O[C@](O)(C[C@@H](O)C[C@H]3O[C@@H]3/C=C/C(=O)O1)C[C@H](O)[C@H]2C(=O)O [Natamycin needle, natamycin] |  |  |  | 

Row | SMILES | mean particle size (d4,3) ([1]; listed as Disc-shaped natamycin powder) | mean particle size (d4,3) ([1]; listed as disc-shaped natamycin product) [μm] | Particle size distribution ([1]; particle size 0-0.2 μm) [% w/w] | Particle size distribution ([1]; particle size 0.2-0.8 μm) [% w/w] | Particle size distribution ([1]; particle size 0.8-2.0 μm) [% w/w] | Particle size distribution ([1]; particle size 2.0-5.0 μm) [% w/w] | Particle size distribution ([1]; particle size 5.0-10.0 μm) [% w/w] | Particle size distribution ([1]; particle size 10.0-50.0 μm) [% w/w] | Particle size distribution ([1]; particle size 50.0-200.0 μm) [% w/w] | time to reach saturation concentration [2] | sedimentation behaviour ([4]; all pH values (pH 3 to 10), within 24 hours) | mean particle size (d4,3) ([1]; listed as needle-shaped natamycin product) [μm] | Protection of cheese against fungal growth ([3]; 150 ppm natamycin in the coating) [days] | Protection of cheese against fungal growth ([3]; 250 ppm natamycin in the coating) [days] | mean particle size (d4,3) [1] [μm] | volume percentage below the sedimentation front ([4]; pH 4 to 6, after one day)
3 | C[C@@H]1[C@H](O)[C@@H](C)/C=C/C=C/CC/C=C/C=C/C=C/C=C/C(O[C@H]2O[C@H](C)[C@@H](O)[C@H](N)[C@@H]2O)CC2O[C@](O)(CC(O)C(O)CCC(O)CC(O)CC(O)CC(=O)O[C@H]1C)CC(O)C2C(=O)O (stereo partly drawn) [Nystatin, nystatin] |  |  | 7.4 | 4.4 | 27.2 | 46.7 | 12.2 | 2.1 | 0.0 |  |  |  |  |  | 3.4 | around 25%
